Experimental data from patent publication US9745328B2, “Flap modulators” (JANSSEN PHARMACEUTICA NV, priority 2013, dated 2017).
Structures can show the parent of a compound that is named as a salt.

molecular target: human FLAP (Homo sapiens (Human), UniProt P20292); assay: FLAP binding assay (HTRF format); details: Table 5, human FLAP wild type
Description: The ability of the compounds of the present invention to treat a FLAP-mediated disease and/or disorder, or associated symptoms or complications thereof, was determined using the following procedures. Binding assay data represent the average value obtained from two different assay plates, with samples run in duplicate on each plate. Human whole blood assay data represent a single replicate on an assay plate using whole blood from at least one healthy donor.
Data are expressed as a HTRF ratio.

Sequence of human FLAP (P20292 whole entry): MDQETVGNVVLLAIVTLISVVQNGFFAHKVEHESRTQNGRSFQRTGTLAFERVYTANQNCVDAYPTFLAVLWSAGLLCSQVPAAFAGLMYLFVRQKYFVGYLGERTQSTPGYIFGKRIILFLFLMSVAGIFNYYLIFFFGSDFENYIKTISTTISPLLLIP

Ki [nM]	SMILES
106	Nc1cnc(-c2ccc(-c3cccnc3S(=O)(=O)C3CCNC3)cc2F)cn1 (racemic) [Example 803, 5-(2-Fluoro-4-(2-(pyrrolidin-3-ylsulfonyl)pyridin-3-yl)phenyl)pyrazin-2-amine hydrochloride]

same assay, conditions: Table 6 (additional runs), human FLAP wild type

SMILES	Ki [nM]
CC(NS(=O)(=O)c1ccccc1-c1ccc(-c2cnc(N)cn2)c(F)c1)C(F)(F)F (racemic) [Example 8, (racemic)-4′-(5-Aminopyrazin-2-yl)-3′-fluoro-N-(2,2,2-trifluoro-1-methylethyl)biphenyl-2-sulfonamide racemic]	1.3
Nc1cnc(-c2ccc(-c3ccccc3S(=O)(=O)NC3CC4CCC3C4)cc2F)cn1 (racemic) [Example 10, (racemic)-(endo)-4′-(5-Aminopyrazin-2-yl)-N-bicyclo[2.2.1]hept-2-yl-3′-fluorobiphenyl-2-sulfonamide racemic]	2.7
CS(=O)(=O)c1ccccc1-c1ccc(-c2cnc(N)cn2)c(F)c1 [Example 1, 5-(3-Fluoro-2′-(methylsulfonyl)-[1,1′-biphenyl]-4-yl)pyrazin-2-amine]	352
CS(=O)(=O)Nc1ccccc1-c1ccc(-c2cnc(N)cn2)c(F)c1 [Example 2, N-[4′-(5-Aminopyrazin-2-yl)-3′-fluorobiphenyl-2-yl]methanesulfonamide]	178
CC(C)(C)NS(=O)(=O)c1ccccc1-c1ccc(-c2cnc(N)cn2)c(F)c1 [Example 4, 4′-(5-Aminopyrazin-2-yl)-N-(tert-butyl)-3′-fluoro-[1,1′-biphenyl]-2-sulfonamide]	0.4
Nc1cnc(-c2ccc(-c3ccccc3S(=O)(=O)NC3CCCCC3)cc2F)cn1 [Example 6, 4′-(5-Aminopyrazin-2-yl)-N-cyclohexyl-3′-fluorobiphenyl-2-sulfonamide]	1.1
CC(C)CNS(=O)(=O)c1ccccc1-c1ccc(-c2cnc(N)cn2)c(F)c1 [Example 7, 4′-(5-Aminopyrazin-2-yl)-3′-fluoro-N-(2-methylpropyl)biphenyl-2-sulfonamide]	0.8
Nc1cnc(-c2ccc(-c3ccccc3S(=O)(=O)NCC3CCC3)cc2F)cn1 [Example 9, 4′-(5-Aminopyrazin-2-yl)-N-(cyclobutylmethyl)-3′-fluorobiphenyl-2-sulfonamide]	1.5
CC1(NS(=O)(=O)c2ccccc2-c2ccc(-c3cnc(N)cn3)c(F)c2)CCC1 [Example 11, 4′-(5-Aminopyrazin-2-yl)-3′-fluoro-N-(1-methylcyclobutyl)biphenyl-2-sulfonamide]	1.6
CCC(C)(C)NS(=O)(=O)c1ccccc1-c1ccc(-c2cnc(N)cn2)c(F)c1 [Example 12, 4′-(5-Aminopyrazin-2-yl)-N-(1,1-dimethylpropyl)-3′-fluorobiphenyl-2-sulfonamide]	1.9
CC(C)(NS(=O)(=O)c1ccccc1-c1ccc(-c2cnc(N)cn2)c(F)c1)C(F)(F)F [Example 13, 4′-(5-4minopyrazin-2-yl)-3′-fluoro-N-(2,2,2-trifluoro-1,1-dimethylethyl)biphenyl-2-sulfonamide]	1.2
Nc1cnc(-c2ccc(-c3ccccc3S(=O)(=O)NC3CCCC3)cc2F)cn1 [Example 14, 4′-(5-Aminopyrazin-2-yl)-N-cyclopentyl-3′-fluorobiphenyl-2-sulfonamide]	3.5
CNS(=O)(=O)c1ccccc1-c1ccc(-c2cnc(N)cn2)c(F)c1 [Example 15, 4′-(5-Aminopyrazin-2-yl)-3′-fluoro-N-methylbiphenyl-2-sulfonamide]	11.1
CCNS(=O)(=O)c1ccccc1-c1ccc(-c2cnc(N)cn2)c(F)c1 [Example 16, 4′-(5-Aminopyrazin-2-yl)-N-ethyl-3′-fluorobiphenyl-2-sulfonamide]	5
Nc1cnc(-c2ccc(-c3ccccc3S(=O)(=O)NCCc3ccccc3)cc2F)cn1 [Example 17, 4′-(5-Aminopyrazin-2-yl)-3′-fluoro-N-(2-phenylethyl)biphenyl-2-sulfonamide]	1.7
Nc1cnc(-c2ccc(-c3ccccc3S(=O)(=O)N[C@H](c3ccccc3)C(F)(F)F)cc2F)cn1 [Example 18]	1.8
Nc1cnc(-c2ccc(-c3ccccc3S(=O)(=O)N[C@@H](c3ccccc3)C(F)(F)F)cc2F)cn1 [Example 19]	2.2

Results, then the compound that gave them:

Ki [nM]	SMILES
15.9	Nc1cnc(-c2ccc(-c3ccccc3S(=O)(=O)N3CCN4CCCC4C3)cc2F)cn1 (racemic) [Example 61, racemic 5-[3-Fluoro-2′-(hexahydropyrrolo[1,2-a]pyrazin-2(1H)-ylsulfonyl)biphenyl-4-yl]pyrazin-2-amine]
1.9	Nc1cnc(-c2ccc(-c3ccccc3S(=O)(=O)N3CCCC(CCO)C3)cc2F)cn1 (racemic) [Example 71, racemic 2-(1-{[4′-(5-Aminopyrazin-2-yl)-3′-fluorobiphenyl-2-yl]sulfonyl}piperidin-3-yl)ethanol]
3.2	CC(C)(C)OC(=O)NC1CCCN(S(=O)(=O)c2ccccc2-c2ccc(-c3cnc(N)cn3)c(F)c2)C1 (racemic) [Example 77, racemic tert-Butyl (1-{[4′-(5-aminopyrazin-2-yl)-3′-fluorobiphenyl-2-yl]sulfonyl}piperidin-3-yl)carbamate]
1.1	Nc1cnc(-c2ccc(-c3ccccc3S(=O)(=O)N[C@H]3CCCC[C@@H]3O)cc2F)cn1 (racemic) [Example 120, racemic (trans)-4′-(5-Aminopyrazin-2-yl)-3′-fluoro-N-(2-hydroxycyclohexyl)biphenyl-2-sulfonamide]
0.5	Nc1cnc(-c2ccc(-c3ccccc3S(=O)(=O)N[C@H]3CCCC[C@@H]3CO)cc2F)cn1 (racemic) [Example 121, racemic (trans)-4′-(5-Aminopyrazin-2-yl)-3′-fluoro-N-[2-(hydroxymethyl)cyclohexyl]biphenyl-2-sulfonamide]
0.7	Nc1cnc(-c2ccc(-c3ccccc3S(=O)(=O)N[C@@H]3CCCC[C@@H]3CO)cc2F)cn1 (racemic) [Example 122, racemic (cis)-4′-(5-Aminopyrazin-2-yl)-3′-fluoro-N-[2-(hydroxymethyl)cyclohexyl]biphenyl-2-sulfonamide]
7.8	Nc1ncc(-c2ccc(-c3ccccc3S(=O)(=O)N[C@H]3CCCC[C@H]3O)cc2F)cn1 (racemic) [Example 259, racemic (cis) 4′-(2-Aminopyrimidin-5-yl)-3′-fluoro-N-[(cis)-2-hydroxycyclohexyl]biphenyl-2-sulfonamide]
8.9	Nc1ncc(-c2ccc(-c3ccccc3S(=O)(=O)N[C@H]3CCCC[C@@H]3O)cc2F)cn1 (racemic) [Example 260, racemic (trans) 4′-(2-Aminopyrimidin-5-yl)-3′-fluoro-N-[(trans)-2-hydroxycyclohexyl]biphenyl-2-sulfonamide]
0.5	CC(NS(=O)(=O)c1ccccc1-c1ccc(-c2cnc3[nH]ccc3n2)c(F)c1)C(F)(F)F (racemic) [Example 376, 3′-Fluoro-4′-(5H-pyrrolo[2,3-b]pyrazin-2-yl)N-N-(2,2,2-trifluoro-1-methylethyl)biphenyl-2-sulfonamide]
0.7	C[C@H](NS(=O)(=O)c1ccccc1-c1ccc(-c2cnc(N)cn2)c(F)c1)C(O)c1ccccc1 (stereo in doubt) [Example 83, 4′-(5-Aminopyrazin-2-yl)-3′-fluoro-N-[(1S,2R)-2-hydroxy-1-methyl-2-phenylethyl]biphenyl-2-sulfonamide]
201	CN1CCN([C@H]2CN(S(=O)(=O)c3ccccc3-c3ccc(-c4cnc(N)cn4)c(F)c3)C[C@@H]2O)CC1 (stereo in doubt) [Example 188, (3S,4S)-1-{[4′-(5-Aminopyrazin-2-yl)-3′-fluorobiphenyl-2-yl]sulfonyl}-4-(4-methylpiperazin-1-yl)pyrrolidin-3-ol]
0.6	CC(CO)NS(=O)(=O)c1ccccc1-c1ccc(-c2cnc3[nH]ccc3n2)c(F)c1 (stereo in doubt) [Example 378, 3′-Fluoro-N-[(1R)-2-hydroxy-1-methylethyl]-4′-(5H-pyrrolo[2,3-b]pyrazin-2-yl)biphenyl-2-sulfonamide]
1.1	CC(CO)NS(=O)(=O)c1ccccc1-c1ccc(-c2cnc3[nH]ccc3n2)c(F)c1 (stereo in doubt) [Example 380, 3′-Fluoro-N-[(1S)-2-hydroxy-1-methylethyl]4′-(5H-pyrrolo[2,3-b]pyrazin-2-yl)biphenyl-2-sulfonamide]
2.1	Nc1cnc(-c2ccc(-c3ccccc3S(=O)(=O)NC3Cc4ccccc4C3)cc2F)cn1 [Example 21, 4′-(5-Aminopyrazin-2-yl)-N-(2,3-dihydro-1H-inden-2-yl)-3′-fluorobiphenyl-2-sulfonamide]
1.2	Nc1cnc(-c2ccc(-c3ccccc3S(=O)(=O)N[C@@H]3CCc4ccccc43)cc2F)cn1 [Example 23, (R)-4′-(5-Aminopyrazin-2-yl|)-N-[(1R)-2,3-dihydro-1H-inden-1-yl]-3′-fluorobiphenyl-2-sulfonamide]
0.9	Nc1cnc(-c2ccc(-c3ccccc3S(=O)(=O)Nc3ccccc3)cc2F)cn1 [Example 26, 4′-(5-Aminopyrazin-2-yl)-3′-fluoro-N-phenylbiphenyl-2-sulfonamide]
26.3	CCN1CCCC[C@@H](NS(=O)(=O)c2ccccc2-c2ccc(-c3cnc(N)cn3)c(F)c2)C1=O [Example 27]

same assay, conditions: human FLAP wild type, Table 6 (additional runs)

Ki [nM]	SMILES
106	Nc1cnc(-c2ccc(-c3cccnc3S(=O)(=O)C3CCNC3)cc2F)cn1 (racemic) [Example 803, 5-(2-Fluoro-4-(2-(pyrrolidin-3-ylsulfonyl)pyridin-3-yl)phenyl)pyrazin-2-amine hydrochloride]
3.7	CC(CO)NS(=O)(=O)c1ccccc1-c1ccc(-c2cnc(N)c(C#N)n2)c(F)c1 (stereo in doubt) [Example 410, 4′-(5-amino-6-cyanopyrazin-2-yl)-3′-fluoro-N-[(1R)-2-hydroxy-1-methylethypiphenyl-2-sulfonamide]
10.9	CC(O)CNS(=O)(=O)c1ccccc1-c1ccc(-c2cnc(N)c(C#N)n2)c(F)c1 (stereo in doubt) [Example 415, 4′-(5-Amine-6-cyanopyrazin-2-yl)-3′-fluoro-N-[(R)-2-hydroxypropyl]biphenyl-2-sulfonamide]

same assay, conditions: human FLAP wild type, a calculated value of 0.000 indicates Ki less than 1 nM

Ki [nM]	SMILES
< 1	Nc1cnc(-c2ccc(-c3ccccc3S(=O)(=O)N[C@H]3CCCC[C@@H]3CO)cc2F)cn1 (racemic) [Example 121, racemic (trans)-4′-(5-Aminopyrazin-2-yl)-3′-fluoro-N-[2-(hydroxymethyl)cyclohexyl]biphenyl-2-sulfonamide]
< 1	CC(NS(=O)(=O)c1ccccc1-c1ccc(-c2cnc3[nH]ccc3n2)c(F)c1)C(F)(F)F (racemic) [Example 376, 3′-Fluoro-4′-(5H-pyrrolo[2,3-b]pyrazin-2-yl)N-N-(2,2,2-trifluoro-1-methylethyl)biphenyl-2-sulfonamide]
